Measured values: patent US20210121482A1, “WITHANOLIDES FOR THE TREATMENT OF CACHEXIA” (University of Louisville Research Foundation, Inc., priority 2019, published 2021)

What was measured:
[1] = test system: Pax7, Myod1, UPR, UPS and ALS markers in GA muscle; experiment: qPCR of GA muscle (Pax7, Myod1, UPR, UPS, ALS markers); type: in vivo, Mus musculus
Description: Total RNA Extraction and qPCR: Isolation of total RNA from xenografted tumor samples was performed using an RNeasy® Mini Kit (Qiagen Catalog #74104) according to the manufacturer's instructions. Isolation of total RNA from skeletal muscle was performed using an RNeasy® Fibrous Tissue Mini Kit (Qiagen Catalog #74704) according to the manufacturer's instructions. First strand cDNA was synthesized using 1 μg of purified RNA and a commercially available kit (iScript™ cDNA synthesis, Bio-Rad Catalog #170-8891), Quantification of mRNA expression was performed similar to as previously described (Hindi and Kumar, 2016) using the SYBR Green dye method on a StepOnePlus™ system (Applied Biosystems) using gene-specific primers, as shown in Table 1.
Total RNA Extraction and qPCR: as in Example 1.

[2] = test system: TA muscle myofibers (MyHC I, IIa, IIb); experiment: Skeletal muscle fiber-type immunostaining; type: in vivo, mice
Description: Skeletal Muscle Fiber-type Immunostaining: To determine the composition of different types and gross composition of skeletal muscle fibers, 10 μm thick transverse sections were made from TA muscles, a hydrophobic boundary was drawn around the section, and then blocked with 5% goat serum and 2% bovine serum albumin (BSA) in PBS for 30 minutes. The sections were then incubated for one hour with monoclonal antibodies against myosin heavy chain (MyHC) isoforms type I, IIa, and IIb using clone BA-D5, […], and BF-F3, respectively (Developmental Studies Hybridoma Bank, Iowa City, Iowa, USA). The following secondary antibodies were then used for detection after 1-2 hours of incubation period: anti-Mouse IgG2b (γ2b) CF™ 350 antibody produced in goat, anti-Mouse IgG1 (yl) CF™ 568 antibody produced in goat, and Alexa Fluor-488 goat anti-mouse IgM. Fluorescence images were captured with a Nikon TiE 3000 inverted microscope, the single-color channels were merged, and percentage of each fiber-type in whole muscle section was recorded. Nonspecific background staining was performed using the above protocol but omitting the inclusion of the primary antibodies. Antibodies BA-D5, SC-71, and BF-F3 were deposited to the DSHB by Schiaffino, S. (DSHB Hybridoma Product BA-D5, SC-71, and BF-F3).

[3] = test system: A2780; experiment: Effect on ovarian cancer cell line A2780; type: cell-based; settings: A2780 cells; through reactive oxygen species production and DNA damage
[4] = test system: gonadal fat pad; experiment: Qualitative assessment of gonadal fat; type: in vivo, mice
Text: Ovarian cancer progression is often associated with the specific loss of the gonadal fat pad. Thus, an attempt was made to quantify the amount of adipose tissue present in the gonadal region at the time of tissue collection post-euthanization. The severe reduction in the gonadal fat pad rendered accurate measurement of gonadal adipose tissue improbable. Further, in some mice, there was a complete absence of gonadal fat.
1. When the ovaries were embedded in adipose tissue and not readily identifiable without dissection through the fat pad, the mouse was scored “Abundant”. All mice in the control group were deemed to have an abundant amount of gonadal fat, whereas the vehicle treated group had no gonadal fat present, consistent with published reports linking specific changes in the gonadal fat pad to the progression of ovarian cancer.
2. When adipose tissue was present but in such a scant quantity that we could not accurately quantify the mass, the amount of gonadal fat was marked as “Small Amount”.

[5] = test system: satellite cells; experiment: Satellite cell IHC (Pax7, MyoD, Laminin) in TA muscle; type: in vivo, mice
Description: Due to the role of WFA in inhibiting canonical NF-κ B signaling and the effect ovarian cancer has on this signaling pathway, WFA and the xenograft model were tested to measure induction or activation of satellite cells. The TA muscle was subjected to immunofluorescent immunohistochemical (IHC) staining for Pax7 (a marker of satellite cells), MyoD (a marker of myogenic differentiation), and Laminin (a marker of the basal lamina) (FIG. 15A). As accurate IHC detection of satellite cells can be challenging, individual color channels were compared against negative control slides to optimize visualization of satellite cells, minimize nonspecific background staining, and rule out false positives (Pax7^+/DAPI− cells) (37).
Initially, the number of satellite cells per field (normalized by the number of Laminin+ myofibers) was quantified to assess whether the model of ovarian cancer or WFA treatment affected the satellite cell population at large. […] There was a significant increase in the amount of Pax7+ cells in the tumor-bearing vehicle-treated group (0.34±0.01) compared to the tumor-free vehicle-treated and tumor-free WFA 2 mg/kg groups, although there was a significant reduction compared to the tumor-free WFA 4 mg/kg group (p<0.0001 for all comparisons). […] A small, but statistically significant decrease in the tumor-bearing WFA 4 mg/kg group was observed compared to the tumor-bearing vehicle-treated group (p=0.0004). […] Due to the systemic nature of WFA treatment, the tumor-specific uptake of WFA may have diminished the effect observed on skeletal muscle with respect to satellite cell activation in the tumor-bearing animals compared to the tumor-free animals.
After assessing changes in the gross number of satellite cells, the myogenic status was assessed to determine if the satellite cells were functionally activated. Satellite cells that are Pax7+/MyoD− are self-renewing or returning to quiescence, whereas satellite cells that are Pax7+/MyoD+ have committed to the myogenic lineage and will facilitate in muscle repair (6, 38). […] It was not feasible to enumerate the population of Pax7−/MyoD+ cells in response to the xenografted cancer or WFA treatment due to experimental limitations. However, distinct populations of Pax7+/MyoD− and Pax7+/MyoD+ cells were present (FIGS. 15C and 15D).

[6] = tumor-bearing, 2 mg/kg, vs tumor-bearing vehicle
[7] = tumor-bearing, 4 mg/kg, vs tumor-bearing vehicle
[8] = tumor-bearing, 2 and 4 mg/kg, vs tumor-bearing vehicle
[9] = tumor-free, 4 mg/kg, vs tumor-free vehicle
[10] = tumor-free, WFA-treated groups vs vehicle-treated

CC1=C(CO)C(=O)O[C@@H]([C@@H](C)[C@H]2CC[C@H]3[C@@H]4C[C@H]5O[C@]56[C@@H](O)C=CC(=O)[C@]6(C)[C@H]4CC[C@]23C)C1 [WFA, (4β,5β,6β,22R)-4,27-Dihydroxy-5,6:22,26-diepoxyergosta-2,24-diene-1,26-dione]
relative transcript levels of Ddit3 in GA muscle [1, 6]: upregulation of relative transcript levels of Ddit3
relative transcript levels of Ern1 in GA muscle [1, 6]: no significant difference in relative transcript levels of Ern1
transcript levels of Eif2ak3, Atf4, Pppr1r15a, Hspa5, Hsp90B1, Tnfrsf10B in GA muscle [1, 6]: reduction in Eif2ak3, Atf4, Pppr1r15a, Hspa5, Hsp90B1, and Tnfrsf10B
relative transcript levels of Ddit3 and Ern1 in GA muscle [1, 7]: significant increase in relative transcript levels of Ddit3 and Ern1
transcript levels of Eif2ak3, Atf4, Pppr1r15a, Hspa5, Hsp90B1, Tnfrsf10B in GA muscle [1, 7]: decrease in relative transcript levels of Eif2ak3, Atf4, Pppr1r15a, Hspa5, Hsp90B1, and Tnfrsf10B
relative mRNA expression of Sqstm1, Map1lc3b, Becn1 [1, 8]: significant dose-dependent reduction in relative mRNA expression of the select ALS markers
transcription of Fbxo30, Fbxo32, Trim63, Traf6 [1, 8]: statistically significant dose-dependent transcriptional downregulation of Fbxo30, Fbxo32, Trim63, and Traf6
relative transcript levels of Pax7 and Myod1 in GA muscle ([1]; tumor-free and tumor-bearing WFA-treated groups): significant increases in both Pax7 and Myod1
relative transcriptional expression of Fbxo30 and Traf6 ([1]; tumor-free, 2 mg/kg, vs vehicle-treated): significant reduction in the relative transcriptional expression of Fbxo30 and Traf6
relative gene expression of Fbxo30, Fbxo32, Trim63, Traf6 [1, 9]: significant reduction in relative gene expression of Fbxo30, Fbxo32, Trim63, and Traf6
relative gene expression of Sqstm1, Map1lc3b, Becn1 [1, 9]: significant reduction in relative gene expression
transcript levels of Atf4 and Tnfrsf10B in GA muscle [1, 10]: no change in transcript levels of Atf4 and Tnfrsf10B
transcript levels of Eif2ak3, Ddit3, Pppr1r15a, Ern1 in GA muscle [1, 10]: transcriptional upregulation of Eif2ak3, Ddit3, Pppr1r15a, and Ern1
transcript levels of Hspa5 and Hsp90B1 in GA muscle [1, 10]: downregulation of Hspa5 and Hsp90B1
proportion of Type IIb myofibers in TA muscle ([2]; 2 and 6 mg/kg, vs control and vehicle treated groups): significantly reduced in the WFA treated groups in a dose-dependent manner
percentage of Type IIa myofibers in TA muscle ([2]; 2 and 6 mg/kg, vs vehicle treated and control groups): significant increase in Type IIa myofibers
percentage of Type I myofibers in TA muscle ([2]; all groups): no significant differences were found
percentage of Type IIx myofibers in TA muscle ([2]; all groups): no significant differences were elucidated upon post hoc analysis
cell death [3]: autophagic cell death
Gonadal Fat: Absent (mice scored/group) ([4]; WFA 2 mg/kg): 0
Gonadal Fat: Abundant (mice scored/group) ([4]; WFA 2 mg/kg): 0
Gonadal Fat: Present (mice scored/group) ([4]; WFA 2 mg/kg): 4/5
Gonadal Fat: Small Amount (mice scored/group) ([4]; WFA 2 mg/kg): 1/5
Gonadal Fat: Absent (mice scored/group) ([4]; WFA 6 mg/kg): 0
Gonadal Fat: Abundant (mice scored/group) ([4]; WFA 6 mg/kg): 0
Gonadal Fat: Present (mice scored/group) ([4]; WFA 6 mg/kg): 1/4
Gonadal Fat: Small Amount (mice scored/group) ([4]; WFA 6 mg/kg): 3/4
Pax7+ cells normalized by number of Laminin+ myofibers ([5]; tumor-bearing, WFA 2 mg/kg): 0.26±0.01
proportion of differentiating satellite cells (Pax7+/MyoD+) ([5]; tumor-bearing, WFA 2 mg/kg): 48.85±1.63%
proportion of proliferating satellite cells (Pax7+/MyoD−) ([5]; tumor-bearing, WFA 2 mg/kg): 51.15±1.63%
Pax7+ cells normalized by number of Laminin+ myofibers ([5]; tumor-bearing, WFA 4 mg/kg): 0.31±0.01
proportion of differentiating satellite cells (Pax7+/MyoD+) ([5]; tumor-bearing, WFA 4 mg/kg): 52.79±1.99%
proportion of proliferating satellite cells (Pax7+/MyoD−) ([5]; tumor-bearing, WFA 4 mg/kg): 47.21±1.99%
Pax7+ cells normalized by number of Laminin+ myofibers ([5]; tumor-free, WFA 2 mg/kg): 0.28±0.02
proportion of differentiating satellite cells (Pax7+/MyoD+) ([5]; tumor-free, WFA 2 mg/kg): 60.73±2.28%
proportion of proliferating satellite cells (Pax7+/MyoD−) ([5]; tumor-free, WFA 2 mg/kg): 39.27±2.28%
Pax7+ cells normalized by number of Laminin+ myofibers ([5]; tumor-free, WFA 4 mg/kg): 0.42±0.01
proportion of differentiating satellite cells (Pax7+/MyoD+) ([5]; tumor-free, WFA 4 mg/kg): 61.37±1.49%
proportion of proliferating satellite cells (Pax7+/MyoD−) ([5]; tumor-free, WFA 4 mg/kg): 38.63±1.49%
